Experimental data from the OligoGym collection.
HELM strings list units from the 5' end as sugar, base in round brackets, then linkage (d deoxyribose, r ribose, m 2'-O-methyl, p phosphodiester). Strings are as the collection lists them; they lack the last nucleoside at the 3' end of the tested compound. [moe] = 2'-O-(2-methoxyethyl) (MOE); [sp] = phosphorothioate linkage; [m5C] = 5-methylcytosine

What follows are substances tested against C9ORF72 (assay: mouse, dose not given). Conditions: ASO.

Q: “RNA1{[moe](A)[sp].[moe](G)p.[moe](G)p.[moe]([m5C])p.d(T)[sp].d(G)[sp].d([m5C])[sp].d(G)[sp].d(G)[sp].d(T)[sp].d(T)[sp].d(G)[sp].d(T)[sp].d(T)[sp].[moe](T)p.[moe]([m5C])p.[moe]([m5C])p.[moe]([m5C])[sp].[moe](T)}$$$$ (last 3' nucleoside missing)” was tested. Which 3 h FOB score did it give?
A: Its 3 h FOB score is 6.25 score 0-7.

Q: How did the 3 h FOB score turn out when “RNA1{[moe]([m5C])[sp].[moe](T)p.[moe](G)p.[moe](G)p.[moe](T)p.[moe](T)p.d(A)[sp].d(A)[sp].d(T)[sp].d([m5C])[sp].d(T)[sp].d(T)[sp].d(T)[sp].d(A)[sp].d(T)[sp].d([m5C])[sp].[moe](A)p.[moe](G)[sp].[moe](G)}$$$$ (last 3' nucleoside missing)” was run?
A: Its 3 h FOB score is 0 score 0-7.

Q: “RNA1{[moe]([m5C])[sp].[moe]([m5C])p.[moe]([m5C])p.[moe]([m5C])p.[moe](T)p.[moe](A)p.d(G)[sp].d([m5C])[sp].d(G)[sp].d([m5C])[sp].d(G)[sp].d([m5C])[sp].d(G)[sp].d(A)[sp].d([m5C])[sp].d(T)[sp].[moe]([m5C])p.[moe]([m5C])[sp].[moe](T)}$$$$ (last 3' nucleoside missing)” was tested. Which 3 h FOB score did it give?
A: The 3 h FOB score was 6 score 0-7.

Q: For “RNA1{[moe](G)[sp].[moe]([m5C])p.[moe]([m5C])p.[moe](T)[sp].d(T)[sp].d(A)[sp].d([m5C])[sp].d(T)[sp].d([m5C])[sp].d(T)[sp].d(A)[sp].d(G)[sp].[moe](G)p.[moe](A)p.[moe]([m5C])p.[moe]([m5C])[sp].[moe](A)}$$$$ (last 3' nucleoside missing)”, which 3 h FOB score is on record?
A: The 3 h FOB score was 0.25 score 0-7.

Q: How did the 3 h FOB score turn out when “RNA1{[moe](G)[sp].[moe]([m5C])p.[moe]([m5C])p.[moe](T)p.[moe](T)p.[moe](A)[sp].d([m5C])[sp].d(T)[sp].d([m5C])[sp].d(T)[sp].d(A)[sp].d(G)[sp].d(G)[sp].d(A)[sp].[moe]([m5C])p.[moe]([m5C])[sp].[moe](A)}$$$$ (last 3' nucleoside missing)” was run?
A: The 3 h FOB score was 1 score 0-7.

Q: For “RNA1{[moe]([m5C])[sp].[moe](A)p.[moe](G)p.[moe](G)p.[moe]([m5C])p.[moe](T)p.d(G)[sp].d([m5C])[sp].d(G)[sp].d(G)[sp].d(T)[sp].d(T)[sp].d(G)[sp].d(T)[sp].d(T)[sp].[moe](T)p.[moe]([m5C])[sp].[moe]([m5C])}$$$$ (last 3' nucleoside missing)”, which 3 h FOB score is on record?
A: The 3 h FOB score was 6 score 0-7.

Q: Which 3 h FOB score does the source give for “RNA1{[moe](G)[sp].[moe](G)p.[moe]([m5C])p.[moe](T)p.[moe](G)p.d([m5C])[sp].d(G)[sp].d(G)[sp].d(T)[sp].d(T)[sp].d(G)[sp].d(T)[sp].d(T)[sp].d(T)[sp].[moe]([m5C])p.[moe]([m5C])p.[moe]([m5C])[sp].[moe](T)}$$$$ (last 3' nucleoside missing)” here?
A: The 3 h FOB score was 5.5 score 0-7.

Q: How did the 3 h FOB score turn out when “RNA1{[moe]([m5C])[sp].[moe](A)p.[moe](G)p.[moe](G)p.d([m5C])[sp].d(T)[sp].d(G)[sp].d([m5C])[sp].d(G)[sp].d(G)[sp].d(T)[sp].d(T)[sp].d(G)[sp].d(T)[sp].[moe](T)p.[moe](T)p.[moe]([m5C])p.[moe]([m5C])[sp].[moe]([m5C])}$$$$ (last 3' nucleoside missing)” was run?
A: The 3 h FOB score was 4.75 score 0-7.

Q: Which 3 h FOB score does the source give for “RNA1{[moe](G)[sp].[moe](G)p.[moe]([m5C])p.[moe]([m5C])p.[moe]([m5C])p.[moe]([m5C])[sp].d(T)[sp].d(A)[sp].d(G)[sp].d([m5C])[sp].d(G)[sp].d([m5C])[sp].d(G)[sp].d([m5C])[sp].[moe](G)p.[moe](A)[sp].[moe]([m5C])}$$$$ (last 3' nucleoside missing)” here?
A: Its 3 h FOB score is 3.25 score 0-7.

Q: For “RNA1{[moe](G)[sp].[moe]([m5C])p.[moe]([m5C])p.[moe](T)p.[moe](T)p.[moe](A)p.[moe]([m5C])p.d(T)[sp].d([m5C])[sp].d(T)[sp].d(A)[sp].d(G)[sp].d(G)[sp].d(A)[sp].d([m5C])[sp].d([m5C])[sp].d(A)[sp].[moe](A)[sp].[moe](G)}$$$$ (last 3' nucleoside missing)”, which 3 h FOB score is on record?
A: Its 3 h FOB score is 3.25 score 0-7.
